Reference: patent publication EP4806904A1, “POLYPEPTIDE AND USE THEREOF” (Sichuan Gooddoctor Panxi Pharmaceutical Co. Ltd, priority 2023, dated 2026)
Where a SMILES comes first, the peptide text is derived from it. Where no end group is shown, it is not given here. [ ]: non-standard residue; d: D form.

Legend:
[1] = tested on: neural stem cell line C17.2; assay: Proliferation of neural stem cell line C17.2, BrdU, high-content imaging; type: cell-based; settings: 100 µg/mL, 48 h; for number of BrdU positive cells: vs blank control group, in words; for Proliferation-promoting results: percentage of BrdU-positive cells, significance vs blank control group
Procedure: • (1) C17.2 cells were seeded in 96-well plates at a concentration of 1500 cells/100 µL/well. After overnight culture for cell adherence, the cells were treated with drugs; • (2) Drug treatment was applied. The final concentration of the polypeptide of the invention was 100 µg/mL. Meanwhile, butylphthalide (NBP, 5 µM) was set as the positive control. The cells were cultured in the incubator for another 48 h; • (3) BrdU was added at 44 h of treatment to a final concentration of 10 µM. Immunofluorescence staining was performed 4 h later, and the percentage of BrdU-positive cells was statistically analyzed using a high-content cell imaging analysis system.

[2] = tested on: primary neural stem cells (NSCs); assay: Differentiation of primary neural stem cells, βIII-tubulin fluorescence and Neurite Outgrowth Assay; type: cell-based, SD rats; settings: 100 µg/mL; for Longest neurite length / Neurite initiation points (branches) / Number of neurite terminals / Total neurite length / mean fluorescence intensity of the neuronal marker protein βIII-tubulin / Average fluorescence intensity / neurite outgrowth (total neurite length, maximum neurite length, neurite terminals, neurite initiation points): 4 days; for Longest neurite length / Neurite initiation points (branches) / Number of neurite terminals / Total neurite length / Average fluorescence intensity: significance vs blank control group; for mean fluorescence intensity of the neuronal marker protein βIII-tubulin: vs blank control group; for mean fluorescence intensity of the neuronal marker protein βIII-tubulin / neurite outgrowth (total neurite length, maximum neurite length, neurite terminals, neurite initiation points): in words; for Average fluorescence intensity: βIII-tubulin; for neurite outgrowth (total neurite length, maximum neurite length, neurite terminals, neurite initiation points): Neurite Outgrowth Assay
Procedure: This part of the experiment requires feeding male and female rats in advance, then extracting hippocampal neural stem cells from newborn SD rats within 24 h of birth, culturing them to P3 for identification, and then using them for experiments. • (1) Extraction and culture of primary neural stem cells (NSCs) • (2) NSCs that have been passaged to P3 and have good viability were seeded in differentiation medium (2% FBS+DMEM/F12 1:1 medium) in 48-well plates with a cell concentration of 5×10^4 cells/mL per well. After overnight culture for cell adherence, the cells were treated with drugs; • (3) Drug treatment was applied. The final concentration of the polypeptide of the invention was 100 µg/mL. Meanwhile, nerve growth factor (NGF, 50 ng/mL) was set as the positive control, and the cells were cultured in the incubator for another 4 days; • (4) Immunofluorescence staining (primary antibody βIII-tubulin) was performed after 4 days of treatment. The average fluorescence intensity of βIII-tubulin was analyzed and the Neurite Outgrowth Assay was performed using a high-content cell imaging analysis system.

[3] = tested on: Brain microvascular endothelial cells (BMECs) and brain microvascular smooth muscle cells (BMVSMCs); assay: In vitro angiogenesis assay, BMEC/BMVSMC co-culture on matrigel; type: cell-based, mouse; settings: 0.1 mg/L, 48 h
Procedure: First, mouse brain microvascular pellets were obtained by differential centrifugation. Brain microvascular endothelial cells (BMECs) and brain microvascular smooth muscle cells (BMVSMCs) were isolated by digestion with collagenase II, respectively, and cultured in a cell incubator with 5% CO2 at 37°C . Cells at passages 3-6 in good growth condition and logarithmic growth phase were selected for the in vitro angiogenesis assay.
One night before the experiment, the high-concentration matrigel was transferred from a -20°C or -80°C refrigerator to a 4°C refrigerator and allowed to thaw slowly overnight in the 4°C refrigerator. Pipette tips required for the formal experiment were sterilized in advance and pre-cooled in a 4°C refrigerator for subsequent use.
On the day of the experiment, the matrigel was added to a 96-well plate 1 h in advance and placed in a 37°C cell incubator until it solidified. Subsequently, the cells were washed 2 times with 2 mL of PBS buffer, followed by digestion with 0.25% trypsin to obtain EC and VSMC pellets, respectively, and cell counting was performed. A uniform cell suspension containing 5×10^3 BMVSMCs and 1×10^3 BMECs per well was then seeded into the 96-well plate pre-coated with the matrigel, and cultured in a 37°C, 5% CO2 cell incubator for 3 days.
During the culture period, tube formation was observed daily. The medium was changed on day 4, followed by treatment with the polypeptide of the invention at 0.1 mg/L or VEGFA at 10/15/20 ng/L for 48 h, respectively.
On day 5, the cell nuclei and live cells were labeled with Hoechst 33342 and Calcein AM, respectively. High-content brightfield and fluorescence imaging were then performed using a high-content screening system. Finally, angiogenesis in each treatment group was analyzed using the Angiogenesis Analyzer plugin for ImageJ, and statistical analysis was carried out with GraphPad Prism 10.

[4] = significance vs blank control group

Compound	number of BrdU positive cells [1]	Longest neurite length [2]	Number of neurite terminals [2]	Total neurite length [2]	Cell count [3, 4]	Proliferation-promoting results [1]	Number of intersections [3, 4]	neurite outgrowth (total neurite length, maximum neurite length, neurite terminals, neurite initiation points) [2]	Branch length [3, 4]	also measured
CC(C)C[C@H](NC(=O)[C@@H](NC(=O)CNC(=O)[C@@H]1CCCN1C(=O)[C@H](C)NC(=O)[C@@H]1CCCN1C(=O)[C@@H](CC(C)C)NC(=O)[C@H](C)N)[C@@H](C)O)C(=O)O [Compound 3, H-Ala-D-Leu-Pro-Ala-Pro-Gly-Thr-Leu-OH] (H-A[dL]PAPGTL-OH)	tendency to increase	** (**p < 0.01)	* (*p < 0.05)	** (**p < 0.01)	* (*p < 0.05)	–	–	–	–	Neurite initiation points (branches) [2]: * (*p < 0.05); mean fluorescence intensity of the neuronal marker protein βIII-tubulin [2]: significant increase; differentiation of NSCs into neuronal cells ([2]; conclusion based on the results of the two analytical methods): promote the differentiation of NSCs into neuronal cells with stable effects; Average fluorescence intensity [2]: * (*p < 0.05); cell proliferation ([3]; vs normal group, in words): only promoted cell proliferation
CC(C)C[C@H](NC(=O)[C@@H](NC(=O)CNC(=O)[C@@H]1CCCN1C(=O)[C@@H](C)NC(=O)[C@@H]1CCCN1C(=O)[C@H](CC(C)C)NC(=O)[C@H](C)N)[C@@H](C)O)C(=O)O [Compound 5, H-Ala-Leu-Pro-D-Ala-Pro-Gly-Thr-Leu-OH] (H-ALP[dA]PGTL-OH)	–	*** (***p < 0.001)	* (*p < 0.05)	** (**p < 0.01)	* (*p < 0.05)	** (**p < 0.01)	* (*p < 0.05)	–	–	Neurite initiation points (branches) [2]: *** (***p < 0.001); Branch length ([3]; vs normal group, in words): no significant effects; number of junctions ([3]; vs normal group, in words): promoting effects
CC(C)C[C@H](NC(=O)[C@@H](NC(=O)CNC(=O)[C@H]1CCCN1C(=O)[C@H](C)NC(=O)[C@@H]1CCCN1C(=O)[C@H](CC(C)C)NC(=O)[C@H](C)N)[C@@H](C)O)C(=O)O [Compound 6, H-Ala-Leu-Pro-Ala-D-Pro-Gly-Thr-Leu-OH] (H-ALPA[dP]GTL-OH)	–	* (*p < 0.05)	–	* (*p < 0.05)	–	* (*p < 0.05)	** (**p < 0.01)	tendency to promote neurite outgrowth	* (*p < 0.05)	Neurite initiation points (branches) [2]: * (*p < 0.05); angiogenesis-promoting effects ([3]; vs normal group, in words): exhibited angiogenesis-promoting effects
CC(C)C[C@H](NC(=O)[C@H](NC(=O)CNC(=O)[C@@H]1CCCN1C(=O)[C@H](C)NC(=O)[C@@H]1CCCN1C(=O)[C@H](CC(C)C)NC(=O)[C@H](C)N)[C@H](C)O)C(=O)O [Compound 7, H-Ala-Leu-Pro-Ala-Pro-Gly-D-Thr-Leu-OH] (H-ALPAPG[dT]L-OH)	–	* (*p < 0.05)	–	* (*p < 0.05)	** (**p < 0.01)	** (**p < 0.01)	–	tendency to promote neurite outgrowth	–	cell proliferation ([3]; vs normal group, in words): only promoted cell proliferation
CC(C)C[C@H](NC(=O)[C@H](C)N)C(=O)N1CCC[C@H]1C(=O)N[C@@H](C)C(=O)N1CCC[C@H]1C(=O)NCC(=O)N[C@H](C(=O)N[C@H](CC(C)C)C(=O)O)[C@@H](C)O [Compound 8, H-Ala-Leu-Pro-Ala-Pro-Gly-Thr-D-Leu-OH] (H-ALPAPGT[dL]-OH)	–	–	–	–	–	* (*p < 0.05)	* (*p < 0.05)	–	** (**p < 0.01)	angiogenesis-promoting effects ([3]; vs normal group, in words): exhibited angiogenesis-promoting effects
CC(C)C[C@H](NC(=O)[C@@H](NC(=O)CNC(=O)[C@@H]1CCCN1)[C@@H](C)O)C(=O)O [Compound 28, H-Pro-Gly-Thr-Leu-OH] (H-PGTL-OH)	significant increase	–	* (*p < 0.05)	** (**p < 0.01)	–	* (*p < 0.05)	–	tendency to promote neurite outgrowth	–	–
C[C@H](NC(=O)[C@@H]1CCCN1)C(=O)N1CCC[C@H]1C(=O)NCC(=O)O [Compound 36, H-Pro-Ala-Pro-Gly-OH] (H-PAPG-OH)	significant increase	–	* (*p < 0.05)	* (*p < 0.05)	** (**p < 0.01)	** (**p < 0.01)	–	tendency to promote neurite outgrowth	** (**p < 0.01)	Branch length ([3]; vs normal group, in words): promoting effects; number of junctions ([3]; vs normal group, in words): no significant effects
C[C@H](N)C(=O)N1CCC[C@H]1C(=O)NCC(=O)N[C@H](C(=O)O)[C@@H](C)O [Compound 37, H-Ala-Pro-Gly-Thr-OH] (H-APGT-OH)	significant increase	–	–	–	–	* (*p < 0.05)	–	–	–	–
ALPAPG [Compound 40, H-Ala-Leu-Pro-Ala-Pro-Gly-Oh]	significant increase	–	–	–	* (*p < 0.05)	* (*p < 0.05)	–	–	–	mean fluorescence intensity of the neuronal marker protein βIII-tubulin [2]: significant increase; Average fluorescence intensity [2]: * (*p < 0.05); cell proliferation ([3]; vs normal group, in words): only promoted cell proliferation
H-AAPAPGTL-OH [Compound 16, H-Ala-Ala-Pro-Ala-Pro-Gly-Thr-Leu-OH]	–	–	–	–	–	* (*p < 0.05)	–	–	–	mean fluorescence intensity of the neuronal marker protein βIII-tubulin [2]: significant increase; Average fluorescence intensity [2]: * (*p < 0.05)
H-ALPAPGAL-OH [Compound 18, H-Ala-Leu-Pro-Ala-Pro-Gly-Ala-Leu-OH]	–	–	–	–	* (*p < 0.05)	*** (***p < 0.001)	* (*p < 0.05)	–	* (*p < 0.05)	angiogenesis-promoting effects ([3]; vs normal group, in words): exhibited angiogenesis-promoting effects
H-LAPAPGTL-OH [Compound 19, H-Leu-Ala-Pro-Ala-Pro-Gly-Thr-Leu-OH]	–	–	–	–	–	** (**p < 0.01)	* (*p < 0.05)	–	* (*p < 0.05)	angiogenesis-promoting effects ([3]; vs normal group, in words): exhibited angiogenesis-promoting effects
H-LPAPGT-OH [Compound 32, H-Leu-Pro-Ala-Pro-Gly-Thr-OH]	significant increase	–	–	–	** (**p < 0.01)	* (*p < 0.05)	–	–	* (*p < 0.05)	–
H-QLPAPGTL-OH [Compound 22, H-Gln-Leu-Pro-Ala-Pro-Gly-Thr-Leu-OH]	–	* (*p < 0.05)	* (*p < 0.05)	* (*p < 0.05)	–	–	–	promote neurite outgrowth	* (*p < 0.05)	Neurite initiation points (branches) [2]: * (*p < 0.05); Branch length ([3]; vs normal group, in words): promoting effects; number of junctions ([3]; vs normal group, in words): no significant effects
H-QLPAPGTLQHF-OH [Compound 25, H-Gln-Leu-Pro-Ala-Pro-Gly-Thr-Leu-Gln-His-Phe-OH]	–	–	–	–	** (**p < 0.01)	–	–	–	–	mean fluorescence intensity of the neuronal marker protein βIII-tubulin [2]: significant increase; Average fluorescence intensity [2]: * (*p < 0.05); cell proliferation ([3]; vs normal group, in words): only promoted cell proliferation
